{
  "source": "paper PMC9142583",
  "about": "“Structural basis for broad anti-phage immunity by DISARM” (Nature Communications, 2022)",
  "key": {"DrmAB [1]": {"target": "T1, DrmAB (Serratia, UniProt A0A979HMQ0)", "T1 construct": "DrmAB heterodimer (~1:1, ~220 kDa) co-expressed in E. coli BL21-AI; Ni-NTA and size exclusion", "T1 sequence (A0A979HMQ0 1-1325)": "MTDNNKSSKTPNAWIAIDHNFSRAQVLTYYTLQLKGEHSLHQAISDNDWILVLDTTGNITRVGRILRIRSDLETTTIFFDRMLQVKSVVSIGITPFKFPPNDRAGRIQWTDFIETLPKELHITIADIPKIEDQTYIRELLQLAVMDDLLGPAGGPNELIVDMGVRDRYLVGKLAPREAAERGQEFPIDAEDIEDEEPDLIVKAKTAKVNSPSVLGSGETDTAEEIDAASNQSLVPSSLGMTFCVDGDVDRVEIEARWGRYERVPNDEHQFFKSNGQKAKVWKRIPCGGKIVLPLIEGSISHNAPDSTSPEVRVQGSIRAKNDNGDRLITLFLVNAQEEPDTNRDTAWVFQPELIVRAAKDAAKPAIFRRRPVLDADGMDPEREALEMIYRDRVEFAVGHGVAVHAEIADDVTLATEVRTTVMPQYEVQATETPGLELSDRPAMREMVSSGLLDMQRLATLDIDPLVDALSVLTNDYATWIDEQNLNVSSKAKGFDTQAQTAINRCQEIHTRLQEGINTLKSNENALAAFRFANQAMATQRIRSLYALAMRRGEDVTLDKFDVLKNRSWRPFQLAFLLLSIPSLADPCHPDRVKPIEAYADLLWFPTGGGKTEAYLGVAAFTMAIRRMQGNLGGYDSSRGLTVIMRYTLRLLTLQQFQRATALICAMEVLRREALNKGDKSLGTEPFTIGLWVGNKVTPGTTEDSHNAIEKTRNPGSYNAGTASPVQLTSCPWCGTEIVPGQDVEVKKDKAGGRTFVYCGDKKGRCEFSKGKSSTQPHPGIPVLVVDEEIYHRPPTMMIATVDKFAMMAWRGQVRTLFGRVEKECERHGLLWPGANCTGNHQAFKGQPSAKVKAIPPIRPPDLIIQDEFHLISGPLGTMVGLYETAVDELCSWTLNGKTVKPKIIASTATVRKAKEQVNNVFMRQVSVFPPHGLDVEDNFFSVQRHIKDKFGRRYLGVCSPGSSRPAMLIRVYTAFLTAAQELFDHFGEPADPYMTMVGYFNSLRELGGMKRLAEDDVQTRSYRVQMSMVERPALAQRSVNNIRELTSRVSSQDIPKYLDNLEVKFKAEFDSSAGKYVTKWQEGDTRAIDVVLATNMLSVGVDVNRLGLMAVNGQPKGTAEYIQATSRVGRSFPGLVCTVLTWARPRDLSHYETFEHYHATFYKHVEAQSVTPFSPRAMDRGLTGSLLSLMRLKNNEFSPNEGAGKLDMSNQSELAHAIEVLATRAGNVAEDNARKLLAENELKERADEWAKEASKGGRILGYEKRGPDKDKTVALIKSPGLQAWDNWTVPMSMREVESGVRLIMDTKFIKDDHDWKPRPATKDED", "T1 sequence (A0A979HMQ1 1-619 partner)": "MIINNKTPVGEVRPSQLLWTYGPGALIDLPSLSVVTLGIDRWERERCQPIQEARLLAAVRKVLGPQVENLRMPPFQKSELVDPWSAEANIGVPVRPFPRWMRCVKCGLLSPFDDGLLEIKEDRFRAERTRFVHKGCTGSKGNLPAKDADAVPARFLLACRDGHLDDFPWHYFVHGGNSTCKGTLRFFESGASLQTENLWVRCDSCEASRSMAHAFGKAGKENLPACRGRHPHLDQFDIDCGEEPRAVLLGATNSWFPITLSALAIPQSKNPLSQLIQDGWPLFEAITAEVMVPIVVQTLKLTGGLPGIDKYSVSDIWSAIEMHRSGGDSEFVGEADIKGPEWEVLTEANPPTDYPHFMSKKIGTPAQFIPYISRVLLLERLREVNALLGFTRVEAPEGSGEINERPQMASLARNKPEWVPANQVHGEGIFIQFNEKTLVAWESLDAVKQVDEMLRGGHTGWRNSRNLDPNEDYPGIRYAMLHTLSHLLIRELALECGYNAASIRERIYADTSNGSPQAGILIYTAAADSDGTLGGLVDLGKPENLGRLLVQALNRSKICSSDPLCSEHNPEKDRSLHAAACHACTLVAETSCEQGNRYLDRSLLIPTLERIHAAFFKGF", "assay": "cryo-EM structure ([…]-3.[…] A)", "type": "binding", "conditions": "1 mM ADP, 10 uM DrmAB; pH 7.4, ~25 C; canonical ATP site between RecA1 and RecA2 of DrmA; also in DNA-bound complex 7S9W"}, "DrmAB [2]": {"target": "T1, DrmAB", "assay": "ATPase assay, absorbance at […] nm", "type": "biochemical", "conditions": "needs unmethylated DNA stem loop; mere turnover"}, "[3]": {"target": "DrmB (Serratia sp. SCBI DISARM DUF1998-containing protein) (Serratia sp. SCBI)", "assay": "co-purification (Ni-NTA, then SEC); proteins co-expressed in E. coli BL21-AI; His6-DrmB captured on Ni-NTA (25 mM HEPES pH 8, 600 mM NaCl), then HiLoad 16/600 Superdex 200 (25 mM HEPES pH 8, 150 mM NaCl, 5% glycerol, 1 mM DTT), 4 °C; fractions checked by SDS-PAGE"}},
  "data": [
    {"compound": "Nc1ncnc2c1ncn2[C@@H]1O[C@H](COP(=O)(O)OP(=O)(O)O)[C@@H](O)[C@H]1O", "note": "[ADP]", "values": [
      {"measurement": "cryo-EM structure (3.3-3.4 A)", "setting": "DrmAB [1]", "value": "We observed strong density corresponding to ADP within our DNA-bound (Fig. 2e) and DNA-free maps"}
    ]},
    {"compound": "Nc1ncnc2c1ncn2[C@@H]1O[C@H](COP(=O)(O)OP(=O)(O)OP(=O)(O)O)[C@@H](O)[C@H]1O", "note": "[ATP]", "values": [
      {"measurement": "ATPase assay, absorbance at 360 nm", "setting": "DrmAB [2]", "value": "Robust ATPase activity is strongly stimulated by unmethylated DNA"}
    ]},
    {"compound": "DrmA (Serratia sp. SCBI DISARM helicase) (natural protein)", "values": [
      {"measurement": "stoichiometry N", "setting": "[3]", "value": 1}
    ]}
  ]
}
